Experimental data reported in ChEMBL document CHEMBL1157366 (Antimicrob Agents Chemother, 2007).
Calls of active or inactive are those of the source. The calls are words filed in the database; no cut-off is given here.

What was measured:
[1] = biological target: T1, Lethal factor (Bacillus anthracis) (UniProt P15917); assay: Protection against Bacillus anthracis lethal toxin-mediated cytotoxicity in mouse RAW264.7 cells assessed as change in viability at 0.125 to 12.5 uM relative to toxin-treated control; type: cell-based
T1 sequence (whole entry): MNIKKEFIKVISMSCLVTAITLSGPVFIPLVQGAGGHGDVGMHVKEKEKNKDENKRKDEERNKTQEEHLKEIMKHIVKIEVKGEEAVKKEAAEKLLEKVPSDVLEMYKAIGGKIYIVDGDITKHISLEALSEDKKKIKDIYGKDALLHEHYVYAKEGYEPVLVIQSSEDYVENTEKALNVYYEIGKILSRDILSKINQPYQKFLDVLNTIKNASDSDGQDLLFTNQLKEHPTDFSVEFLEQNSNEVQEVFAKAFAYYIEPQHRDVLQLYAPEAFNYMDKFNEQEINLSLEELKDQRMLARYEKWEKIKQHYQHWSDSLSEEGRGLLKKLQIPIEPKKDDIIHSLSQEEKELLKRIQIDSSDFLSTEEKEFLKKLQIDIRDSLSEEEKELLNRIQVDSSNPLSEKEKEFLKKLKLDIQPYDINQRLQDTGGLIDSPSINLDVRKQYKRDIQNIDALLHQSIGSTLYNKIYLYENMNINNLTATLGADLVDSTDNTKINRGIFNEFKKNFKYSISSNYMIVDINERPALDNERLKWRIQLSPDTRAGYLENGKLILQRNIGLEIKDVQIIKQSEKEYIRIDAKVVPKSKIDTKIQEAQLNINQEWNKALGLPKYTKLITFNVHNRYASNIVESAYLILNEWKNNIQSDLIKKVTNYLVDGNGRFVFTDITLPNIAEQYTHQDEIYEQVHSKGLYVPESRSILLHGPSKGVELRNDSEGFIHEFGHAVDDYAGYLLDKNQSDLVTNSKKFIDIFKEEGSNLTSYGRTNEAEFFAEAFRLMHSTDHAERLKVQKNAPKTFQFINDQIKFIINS

[2] = biological target: Protective antigen (Bacillus anthracis) (UniProt P13423); assay: Inhibition of Bacillus anthracis protective antigen pore formation in mouse RAW264.7 cells at 12.5 uM after 2 hrs; type: cell-based
Chain of Protective antigen (Bacillus anthracis) (P13423 whole entry): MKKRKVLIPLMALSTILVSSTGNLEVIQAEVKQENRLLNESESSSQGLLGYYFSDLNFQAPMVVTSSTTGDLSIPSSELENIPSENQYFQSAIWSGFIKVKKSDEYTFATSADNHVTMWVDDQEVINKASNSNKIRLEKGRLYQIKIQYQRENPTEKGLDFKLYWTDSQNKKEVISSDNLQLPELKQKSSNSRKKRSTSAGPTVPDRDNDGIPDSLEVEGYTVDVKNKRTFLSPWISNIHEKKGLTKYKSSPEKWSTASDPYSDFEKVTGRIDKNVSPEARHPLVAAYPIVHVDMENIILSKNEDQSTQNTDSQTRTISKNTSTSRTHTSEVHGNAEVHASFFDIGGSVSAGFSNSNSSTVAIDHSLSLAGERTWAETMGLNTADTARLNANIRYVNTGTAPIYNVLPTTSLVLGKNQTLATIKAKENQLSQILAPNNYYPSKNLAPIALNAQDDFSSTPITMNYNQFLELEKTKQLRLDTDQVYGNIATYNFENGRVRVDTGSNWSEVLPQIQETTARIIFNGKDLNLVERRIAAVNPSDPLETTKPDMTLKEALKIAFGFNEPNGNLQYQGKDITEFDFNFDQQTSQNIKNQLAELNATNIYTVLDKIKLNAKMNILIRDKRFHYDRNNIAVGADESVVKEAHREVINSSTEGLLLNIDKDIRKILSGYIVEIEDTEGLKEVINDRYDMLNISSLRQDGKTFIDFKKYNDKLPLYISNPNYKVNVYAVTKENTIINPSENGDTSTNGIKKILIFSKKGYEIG

CHO-K1 = assay: Inhibition of cholera toxin-mediated intoxication in CHOK1 cells assessed as cAMP levels after 4 hrs by HTRF assay; type: cell-based; conditions: Vibrio cholerae
[3] = biological target: T2, Calmodulin-sensitive adenylate cyclase (Bacillus anthracis) (UniProt P40136); assay: Inhibition of Bacillus anthracis edema toxin-mediated intoxication in CHOK1 cells assessed as cAMP levels after 4 hrs by HTRF assay; type: cell-based; conditions: CHO-K1
T2 sequence (whole entry): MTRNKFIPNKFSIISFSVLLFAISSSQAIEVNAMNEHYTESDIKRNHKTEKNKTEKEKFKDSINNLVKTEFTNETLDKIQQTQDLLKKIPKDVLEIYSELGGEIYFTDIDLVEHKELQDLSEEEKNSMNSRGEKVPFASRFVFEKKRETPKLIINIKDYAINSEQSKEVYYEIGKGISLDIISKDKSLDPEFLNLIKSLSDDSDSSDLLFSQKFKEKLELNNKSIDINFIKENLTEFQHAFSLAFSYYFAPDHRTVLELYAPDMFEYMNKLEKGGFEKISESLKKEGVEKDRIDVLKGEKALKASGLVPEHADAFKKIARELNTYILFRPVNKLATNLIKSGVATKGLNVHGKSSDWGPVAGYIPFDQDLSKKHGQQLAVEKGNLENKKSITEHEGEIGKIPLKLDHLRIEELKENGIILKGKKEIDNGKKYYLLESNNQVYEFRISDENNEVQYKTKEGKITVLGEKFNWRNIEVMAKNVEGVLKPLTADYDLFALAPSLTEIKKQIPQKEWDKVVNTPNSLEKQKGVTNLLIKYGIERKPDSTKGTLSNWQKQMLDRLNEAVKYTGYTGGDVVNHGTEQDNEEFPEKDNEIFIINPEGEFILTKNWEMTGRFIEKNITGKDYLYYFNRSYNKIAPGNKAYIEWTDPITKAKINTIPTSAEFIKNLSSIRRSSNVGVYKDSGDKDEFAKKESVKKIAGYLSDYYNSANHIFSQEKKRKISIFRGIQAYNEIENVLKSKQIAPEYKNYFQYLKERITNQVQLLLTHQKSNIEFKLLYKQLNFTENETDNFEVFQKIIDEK

Serum = assay: Drug level in human serum; type: ADME, cell-free; conditions: read-out: Drug uptake
[4] = biological target: Diphtheria toxin (Corynebacterium diphtheriae) (UniProt Q5PY51); assay: Protection against diphtheria toxin-mediated cytotoxicity in CHOK1 cells assessed as cell viability after 48 hrs by WST1 dye reduction assay; type: cell-based; conditions: CHO-K1
Chain of Diphtheria toxin (Corynebacterium diphtheriae) (Q5PY51 as listed by the source): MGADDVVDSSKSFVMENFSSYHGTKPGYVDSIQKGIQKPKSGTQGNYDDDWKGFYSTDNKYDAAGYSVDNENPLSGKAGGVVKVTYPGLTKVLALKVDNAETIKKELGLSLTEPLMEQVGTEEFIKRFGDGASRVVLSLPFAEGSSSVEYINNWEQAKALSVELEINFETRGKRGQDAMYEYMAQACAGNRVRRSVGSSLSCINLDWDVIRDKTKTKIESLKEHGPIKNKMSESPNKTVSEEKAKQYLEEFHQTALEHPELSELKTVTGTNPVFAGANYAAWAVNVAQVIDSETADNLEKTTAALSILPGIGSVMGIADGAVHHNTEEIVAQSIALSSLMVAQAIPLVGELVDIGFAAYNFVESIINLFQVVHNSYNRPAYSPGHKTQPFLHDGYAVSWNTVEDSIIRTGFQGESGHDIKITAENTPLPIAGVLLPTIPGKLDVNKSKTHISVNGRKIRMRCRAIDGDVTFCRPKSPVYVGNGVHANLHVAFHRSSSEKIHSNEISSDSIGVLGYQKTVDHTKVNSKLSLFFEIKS

Plasmodium falciparum = assay: Antimalarial activity against Plasmodium falciparum; type: functional, organism-based
[5] = biological target: Protective antigen (Bacillus anthracis) (UniProt P13423); assay: Inhibition of Bacillus anthracis protective antigen binding to cell surface of mouse RAW264.7 cells at 12.5 uM after 2 hrs by flow cytometry; type: cell-based
Rattus norvegicus [6] = assay: Protection against Bacillus anthracis lethal toxin-mediated intoxication in Fischer 344 rat assessed as time to death at 54 mg/kg administered through cannula; type: functional
Rattus norvegicus [7] = assay: Protection against Bacillus anthracis lethal toxin-mediated intoxication in Fischer 344 rat assessed as time to death at 5.4 mg/kg administered through cannula; type: functional
Rattus norvegicus [8] = assay: Toxicity in Bacillus anthracis lethal toxin-mediated intoxicated Fischer 344 rat assessed as adverse side effects administered through cannula; type: organism-based; conditions: in vivo, other

With CC1(C)CCC(C)(C)c2cc(C(=O)Nc3ccc(C(=O)O)cc3)ccc21 the fold change (FC) [1] was 3.9.

CC(C)COCC(CN(Cc1ccccc1)c1ccccc1)N1CCCC1 (centres undefined) [BEPRIDIL] was tested, and the Activity [2] was “Active”, the Activity (CHO-K1) was “inactive” and the Activity [3] was “Active”. For the same molecule, the concentration (Serum) was 6.8 µM, the Activity [4] was “Active” and the IC50 (Plasmodium falciparum) was 2500 nM. The Activity [5] was “inactive”.

Molecule O=c1[nH]c2cc(C(F)(F)F)ccc2n1-c1cc(C(F)(F)F)ccc1O has a fold change (FC) [1] of 2.8.

COc1ccc(S(=O)(=O)N(CCO)c2ccccc2CN(C)C/C=C/c2ccc(Cl)cc2)cc1 showed a fold change (FC) [1] of 6.3.

With C1CCC(/N=C(\NC23CC4CC(CC(C4)C2)C3)N2CCOCC2)CC1 the fold change (FC) [1] was 3.9.

CCCNCC(O)COc1ccccc1C(=O)CCc1ccccc1 (centres undefined) gave a fold change (FC) [1] of 3.1.

For CC1=C(/C=C/C(C)=C/C=C/C(C)=C/C(=O)O)C(C)(C)CCC1, the fold change (FC) [1] was 3.

With N[C@@H](COP(=O)(O)O)C(=O)O the fold change (FC) [1] was 2.8.

With CC1=C(/C=C/C(C)=C\C=C\C(C)=C\C(=O)O)C(C)(C)CCC1 the fold change (FC) [1] was 2.6.

Molecule CC1=C(/C=C/C(C)=C/C=C/C(C)=C\C(=O)O)C(C)(C)CCC1 has a fold change (FC) [1] of 3.2.

For CCCCc1oc2ccccc2c1C(=O)c1cc(I)c(OCCN(CC)CC)c(I)c1 [AMIODARONE], the Activity (Rattus norvegicus [6]) was 82.6 min, the Activity [2] was “Active” and the Activity (Rattus norvegicus [7]) was 64.8 min. For the same molecule, the Activity (Rattus norvegicus [8]) was “Non-toxic”, the Activity (CHO-K1) was “inactive” and the Activity [3] was “Active”. For the same molecule, the concentration (Serum) was 3.75 µM, the Activity [4] was “Active” and the Activity [5] was “inactive”.

CC1(C)Oc2ccc(C#N)cc2[C@@H](OC2=CC(=O)CC2)[C@@H]1O was tested, and the fold change (FC) [1] was 3.

O=S(=O)(NCCNC/C=C/c1ccc(Br)cc1)c1cccc2cnccc12 showed a fold change (FC) [1] of 2.9.

Work on N=C(NC(=O)c1nc(Cl)c(N)nc1N)Nc1ccccc1 yielded a fold change (FC) [1] of 2.8.

CCCCCCCCCCCCCCCCOC[C@@H](COP(=O)([O-])OCC[N+](C)(C)C)OC(C)=O was tested, and the fold change (FC) [1] was 3.2.
